The target of experiment [1] is T1, human PPAR γ 2 (Homo sapiens, UniProt P37231).
T1 construct: expressed in transfected cells; host or cells: human osteosarcoma MG63, transiently co-transfected with pSG5-hPPARg and the reporter pGV-P2-PPRE
T1 sequence (P37231 1-505): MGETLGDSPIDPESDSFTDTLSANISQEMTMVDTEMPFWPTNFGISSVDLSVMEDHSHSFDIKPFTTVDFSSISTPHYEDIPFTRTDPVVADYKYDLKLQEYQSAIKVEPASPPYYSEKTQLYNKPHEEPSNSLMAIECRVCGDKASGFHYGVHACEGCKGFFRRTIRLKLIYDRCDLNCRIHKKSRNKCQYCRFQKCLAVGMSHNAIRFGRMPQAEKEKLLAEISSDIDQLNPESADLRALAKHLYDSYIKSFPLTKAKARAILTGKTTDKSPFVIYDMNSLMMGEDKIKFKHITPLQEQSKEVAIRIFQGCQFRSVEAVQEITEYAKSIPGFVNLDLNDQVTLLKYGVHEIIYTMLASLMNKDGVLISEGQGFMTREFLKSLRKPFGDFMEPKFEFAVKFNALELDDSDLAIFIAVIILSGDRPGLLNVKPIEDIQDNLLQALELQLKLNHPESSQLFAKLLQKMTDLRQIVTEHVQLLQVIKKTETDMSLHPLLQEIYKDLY
In words: PPAR γ transcriptional activity, luciferase reporter, test compound alone. In kind it is cell-based. As to conditions: concentration indicating Emax/2, MG63 cells transfected with pSG5-hPPARg and pGV-P2-PPRE, 24 hr. The method, then:
The primers of the polymerase chain reaction (hereinafter “PCR”) were designed according to the gene sequence of human PPAR γ 2 (GenBANK accession No. D83233). In order to insert the genes into the BamHI site of the plasmid pSG5 ([…] CLONING SYSTEMS), Bgl II sites were added upstream and downstream of the genes encoding human PPAR γ 2 protein. For this, 2 kinds of polynucleotides shown in the sequence numbers 1 and 2 in the sequence table described below (hereinafter “S1” and “AS1”, respectively) were used as PCR primers.
In order to determine transcriptional activity via PPAR γ, 2 kinds of polynucleotides represented in sequence numbers 3 and 4 in the sequence table described below (hereinafter “S2” and “AS2”, respectively) were used for construction of the reporter plasmid having PPAR responsive element. The DNA fragment inserted was designed based on the gene sequence in the promoter region of rat acylCo-A oxidase (J. D. Tugwood, EMBO J., 11 (2), pp433-439 (1992)). For insertion of the DNA fragment into the reporter plasmid pGV-P2 (TOYO INK MFG CO., LTD), a NheI site and an XhoI site were added to the S2 and AS2, respectively.
Using cDNA library (Clontech) derived from human adipose tissue as a template, DNA oligomers S1 and AS1 that were synthesized in the procedure 1 as primers and Ex-Taq™ (TAKARA BIO INC.) as a thermostable DNA polymerase-PCR was carried out. As a result of the PCR, the c.a. 1500 bps DNA fragments were amplified. Each cycle consisted of incubation at 94° C. for 1 min for denaturation of the template, then at 55° C. for 30 sec for annealing of DNA oligomers the PCR primer, and then at 72° C. for 30 sec for extension of the chain. The obtained DNA fragments with approximately 1500 base pairs were digested at the Bgl II sites and were inserted into BamHI sites of pSG5. Thus a human PPAR γ expression plasmid named pSG5-hPPAR g was obtained. The nucleotide sequence of the inserted DNA fragment was confirmed to be identical sequence to the human PPAR γ 2 reported by the dideoxy method.
Vector pGV-P2 digestion products was prepared by digestion using the restriction enzymes, NheI and XhoI, and purified by 1.0% agarose-gel electrophoresis. The DNA oligomers, S2 and AS2 obtained in Procedure 2, were mixed together and were incubated in a hot bath at 94° C. for 1 min. After the annealing was partially broken, they were further incubated at 25° C. for 1 hr. Thus double-stranded DNA with annealing of S2 and AS2 was formed. Then, the terminus of the double-stranded DNA with annealing of S2 and AS2 was phosphorylated with DNA polynucleotide kinase (TOYOBO CO., LTD). After that, it was ligated to the pGV-P2 digestion products which were prepared previously using the NheI site and XhoI site. Thus the reporter plasmid pGV-P2-PPRE was obtained.
Using the plasmid obtained by the procedures 3 and 4, transformation of Escherichia coli HB-101 strain was carried out by conventional methods. HB-101 strain having the plasmid was incubated in L-broth medium (containing 10 g of trypton (Difco), 5 g of yeast extract (Difco), 5 g of sodium chloride in 1 L of aqueous solution) containing 100 μg/ml of ampicillin at 37° C. for 17 hrs. Then, each plasmid was purified by the alkaline-SDS method and employed for the gene transfection to mammalian cells. After mixing the pSG5-hPPARg, PGV-P2-PPRE and LipofectAMINE reagent (GIBCO BRL), the human osteosarcoma MG63 was transiently transfected. Then the cells were recovered. The recovered cells were plated on a 96-well plate so as to be 30,000 cells/well and cultured in a CO2 incubator (NAPCO) at 37° C. for 24 hr under the condition of 5% CO2, 95%-RH.
Various concentrations of the test compound alone were added to culturing medium of the cells prepared in the Procedure 5. After 24 hr of culturing, LT2.0 (TOYO INK MFG CO., LTD), a luciferase substrate, was added to the medium free culture plate. […]
(A reporter such as luciferase makes a cellular process visible.)

The target in experiment [2] is T1, human PPAR γ 2. Description: Inhibitory activity against PPAR γ transcription in the presence of agonist compound A, luciferase reporter. In kind it is cell-based. As to conditions: in the presence of 10 nM compound A (agonist); MG63 cells transfected with pSG5-hPPARg and pGV-P2-PPRE; 24 hr.

As a reminder, the EC50 is the concentration giving half of the maximal effect. Broadly, the IC50 is the concentration that gives 50% inhibition.

`Cc1ccc(NC(=O)c2cc([N+](=O)[O-])ccc2Cl)cc1` [Example 1, N-(4-Methylphenyl)-(2-chloro-5-nitrophenyl)carboxamide] returned an EC50 in experiment [1] of 220 nM. The 50% inhibitory concentration (IC50) in experiment [2] was 33 nM.

Turning to `O=C(Nc1ccc(-c2ccccc2)cc1)c1cc([N+](=O)[O-])ccc1Cl` [Example 2, N-(4-Phenylphenyl)-(2-chloro-5-nitrophenyl)carboxamide], the EC50 in experiment [1] was found to be 840 nM. Besides, the IC50 in experiment [2] was 1.9 nM.

`Cc1cnc(NC(=O)c2cc([N+](=O)[O-])ccc2Cl)s1` [Example 4, N-(5-Methylthiazol-2-yl)-(2-chloro-5-nitrophenyl)carboxamide] had an EC50 in experiment [1] of 15 nM. The IC50 in experiment [2] was determined as 120 nM.

In experiment [1], `O=C(Nc1cccc(-c2ccccc2)c1)c1cc([N+](=O)[O-])ccc1Cl` [Example 5, N-(3-Phenylphenyl)-(2-chloro-5-nitrophenyl)carboxamide] registered an EC50 of 400 nM. The IC50 in experiment [2] was 82 nM.

Take `COc1ccc(NC(=O)c2cc([N+](=O)[O-])ccc2Cl)cc1-c1ccccc1` [Example 6, N-(4-Methoxy-3-phenyl)phenyl-(2-chloro-5-nitrophenyl)carboxamide]: the EC50 in experiment [1] amounted to 34 nM. Besides, the 50% inhibitory concentration (IC50) in experiment [2] amounted to 160 nM.

In the case of `O=C(Nc1ccccc1-c1ccccc1)c1cc([N+](=O)[O-])ccc1Cl` [Example 7, N-(2-Phenylphenyl)-(2-chloro-5-nitrophenyl)carboxamide], in experiment [1], it took 270 nM to reach a half-maximal effect (EC50).

Take `O=C(Nc1ccc(-c2ccccn2)cc1)c1cc([N+](=O)[O-])ccc1Cl` [Example 8, N-[4-(2-Pyridyl)phenyl]-(2-chloro-5-nitrophenyl)carboxamide]: the half-maximal effective concentration (EC50) in experiment [1] came to 260 nM. In addition, in experiment [2], the IC50 came out at 5.9 nM.

For the molecule `CCCCCc1ccc(NC(=O)c2cc([N+](=O)[O-])ccc2Cl)cc1` [Example 16, N-(4-Pentylphenyl)-(2-chloro-5-nitrophenyl)carboxamide], the EC50 in experiment [1] is 34 nM. In experiment [2], the IC50 was determined as 7.5 nM.

Turning to `CCOC(=O)c1ccc(NC(=O)c2cc([N+](=O)[O-])ccc2Cl)cc1` [Example 26, N-(4-Ethoxycarbonylphenyl)-(2-chloro-5-nitrophenyl)carboxamide], the EC50 in experiment [1] turned out to be 2.1 nM. Also, the concentration for half-maximal inhibition (IC50) in experiment [2] was 6.3 nM.

`CC(C)(C)c1cc(NC(=O)c2cc([N+](=O)[O-])ccc2Cl)cc(C(C)(C)C)c1O` [Example 29, N-(3,5-Di-t-butyl-4-hydroxyphenyl)-(2-chloro-5-nitrophenyl)carboxamide] returned a half-maximal effective concentration (EC50) in experiment [1] of 4.4 nM. Moreover, the concentration for half-maximal inhibition (IC50) in experiment [2] stood at 230 nM.

As to `O=C(Nc1cccc(NS(=O)(=O)c2ccccc2)c1)c1cc([N+](=O)[O-])ccc1Cl` [Example 30, N-(3-Benzensulfonylaminophenyl)-(2-chloro-5-nitrophenyl)carboxamide], a half-maximal effect in experiment [1] (EC50) was put at 1.9 nM. For the same molecule, the IC50 in experiment [2] came to 12 nM.

In experiment [1], `O=C(Nc1nc(-c2ccccc2)cs1)c1cc([N+](=O)[O-])ccc1Cl` [Example 35, N-(4-Phenylthiazol-2-yl)-(2-chloro-5-nitrophenyl)carboxamide] had a concentration for a half-maximal effect (EC50) of 25 nM. Besides, the IC50 in experiment [2] was determined as 30 nM.

For `O=C(Nc1nc(-c2cccnc2)cs1)c1cc([N+](=O)[O-])ccc1Cl` [Example 37, N-[4-(3-Pyridyl)thiazol-2-yl)-(2-chloro-5-nitrophenyl)carboxamide], the concentration for a half-maximal effect (EC50) in experiment [1] amounted to 510 nM. In addition, the IC50 in experiment [2] worked out at 15 nM.

`O=C(Nc1nc(-c2ccccn2)cs1)c1cc([N+](=O)[O-])ccc1Cl` [Example 38, N-[4-(2-Pyridyl)thiazol-2-yl)-(2-chloro-5-nitrophenyl)carboxamide] registered a 50% effective concentration (EC50) in experiment [1] of 250 nM. In experiment [2], the 50% inhibitory concentration (IC50) stood at 45 nM.

Molecule `O=C(Nc1cccc2cccnc12)c1cc([N+](=O)[O-])ccc1Cl` [Example 57, N-(8-Quinolinyl)-(2-chloro-5-nitrophenyl)carboxamide] displayed a half-maximal effective concentration (EC50) in experiment [1] of 260 nM.

Regarding `COC(=O)c1sccc1NC(=O)c1cc([N+](=O)[O-])ccc1Cl` [Example 66, N-(2-Methoxycarbonylthiophen-3-yl)-(2-chloro-5-nitrophenyl)carboxamide], the EC50 in experiment [1] came to 120 nM.
